Measurements from ChEMBL document CHEMBL1201862, “PubChem BioAssay data set” (2004).
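1) Cells in 96-well plates. 2) Compound, 48 h, 5 concentrations. 3) Linear interpolation between surrounding doses. 4) Unreached endpoint = highest concentration. GI50 marks 50% less growth.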 The source made the active and inactive calls. No stated cut-off is given here; in the data, active = GI50 up to about 1.1 µM and inactive = higher.

Legend:
Experiment in all cases: inhibition of tumour cell growth, NCI panel, 48 h
SNB-75 = tested on: SNB-75
LOX IMVI = tested on: LOX IMVI
MOLT-4 = tested on: MOLT-4
IGROV-1 = tested on: IGROV-1
Malme-3M = tested on: Malme-3M
KM12 = tested on: KM12
BT-549 = tested on: BT-549
OVCAR-8 = tested on: OVCAR-8
SK-MEL-28 = tested on: SK-MEL-28
NCI-H460 = tested on: NCI-H460
SF-539 = tested on: SF-539
SK-OV-3 = tested on: SK-OV-3
EKVX = tested on: EKVX
SK-MEL-2 = tested on: SK-MEL-2
786-0 = tested on: 786-0
ACHN = tested on: ACHN
Hs-578T = tested on: Hs-578T
M14 = tested on: M14
MCF7 = tested on: MCF7
HL-60 = tested on: HL-60
SW-620 = tested on: SW-620
HOP-92 = tested on: HOP-92
PC-3 = tested on: PC-3
COLO 205 = tested on: COLO 205
NCI/ADR-RES = tested on: NCI/ADR-RES
HT-29 = tested on: HT-29
NCI-H226 = tested on: NCI-H226
SK-MEL-5 = tested on: SK-MEL-5
A498 = tested on: A498
SF-268 = tested on: SF-268
K562 = tested on: K562
HCT-15 = tested on: HCT-15
HCT-116 = tested on: HCT-116
MDA-MB-231 = tested on: MDA-MB-231
TK-10 = tested on: TK-10
MDA-MB-435 = tested on: MDA-MB-435
UACC-62 = tested on: UACC-62
HOP-62 = tested on: HOP-62
A549 = tested on: A549
UO-31 = tested on: UO-31
OVCAR-3 = tested on: OVCAR-3
CCRF-CEM = tested on: CCRF-CEM
SF-295 = tested on: SF-295
RPMI-8226 = tested on: RPMI-8226
CAKI-1 = tested on: CAKI-1
SN12C = tested on: SN12C
HCC 2998 = tested on: HCC 2998
U-251 = tested on: U-251
OVCAR-4 = tested on: OVCAR-4
OVCAR-5 = tested on: OVCAR-5
T47D = tested on: T47D
SR = tested on: SR
RXF 393 = tested on: RXF 393
NCI-H23 = tested on: NCI-H23
DU-145 = tested on: DU-145
UACC-257 = tested on: UACC-257
SNB-19 = tested on: SNB-19

For `CCOC(=O)CCC(NC(=O)c1ccc(Nc2nc3cc(C(F)(F)F)ccc3nc2-c2ccccc2)cc1)C(=O)OCC` (configuration not stated), the GI50 (SNB-75) was 15.2 µM (inactive), the GI50 (LOX IMVI) was 19.8 µM (inactive) and the GI50 (MOLT-4) was 16.9 µM (inactive). The GI50 (IGROV-1) was 14.7 µM (inactive), the GI50 (Malme-3M) was 28.2 µM (inactive) and the GI50 (KM12) was 17.7 µM (inactive). The GI50 (BT-549) was 25.2 µM (inactive), the GI50 (OVCAR-8) was 20.6 µM (inactive) and the GI50 (SK-MEL-28) was 26.5 µM (inactive). For the same compound, the GI50 (NCI-H460) was 24.4 µM (inactive), the GI50 (SF-539) was 31.3 µM (inactive) and the GI50 (SK-OV-3) was 30.5 µM (inactive). For the same compound, the GI50 (EKVX) was 20.2 µM (inactive), the GI50 (SK-MEL-2) was > 100 µM (inactive) and the GI50 (786-0) was 29.6 µM (inactive). The GI50 (ACHN) was 21 µM (inactive), the GI50 (Hs-578T) was 19.7 µM (inactive) and the GI50 (M14) was > 100 µM (inactive). For the same compound, the GI50 (MCF7) was 20.6 µM (inactive), the GI50 (HL-60) was 36.1 µM (inactive) and the GI50 (SW-620) was 30.5 µM (inactive). For the same compound, the GI50 (HOP-92) was 17.7 µM (inactive), the GI50 (PC-3) was > 100 µM (inactive) and the GI50 (COLO 205) was 22.4 µM (inactive). For the same compound, the GI50 (NCI/ADR-RES) was 19.5 µM (inactive), the GI50 (HT-29) was 25.8 µM (inactive) and the GI50 (NCI-H226) was 20.7 µM (inactive). For the same compound, the GI50 (SK-MEL-5) was 18.6 µM (inactive), the GI50 (A498) was 5.35 µM (inactive) and the GI50 (SF-268) was 22.3 µM (inactive). For the same compound, the GI50 (K562) was 23.4 µM (inactive), the GI50 (HCT-15) was 24.7 µM and the GI50 (HCT-116) was 26.4 µM (inactive). The GI50 (MDA-MB-231) was 20.3 µM (inactive), the GI50 (TK-10) was 19.6 µM (inactive) and the GI50 (MDA-MB-435) was 28.8 µM (inactive). For the same compound, the GI50 (UACC-62) was 13.3 µM (inactive), the GI50 (HOP-62) was > 100 µM (inactive) and the GI50 (A549) was > 100 µM (inactive). The GI50 (UO-31) was 14.6 µM (inactive), the GI50 (OVCAR-3) was > 100 µM (inactive) and the GI50 (CCRF-CEM) was 27.8 µM (inactive). The GI50 (SF-295) was 33.4 µM (inactive), the GI50 (RPMI-8226) was 24.7 µM (inactive) and the GI50 (CAKI-1) was 20.5 µM (inactive). For the same compound, the GI50 (SN12C) was 19.3 µM (inactive), the GI50 (HCC 2998) was 24.3 µM (inactive) and the GI50 (U-251) was 25.3 µM (inactive). The GI50 (OVCAR-4) was 21.9 µM (inactive), the GI50 (OVCAR-5) was > 100 µM (inactive) and the GI50 (T47D) was 16.4 µM (inactive). The GI50 (SR) was 13.2 µM (inactive), the GI50 (RXF 393) was > 100 µM (inactive) and the GI50 (NCI-H23) was 20.7 µM (inactive). The GI50 (DU-145) was 24.5 µM (inactive), the GI50 (UACC-257) was 22.8 µM (inactive) and the GI50 (SNB-19) was 21.5 µM (inactive).
